Measured values: patent publication US8871753B2, “Macrocyclic compounds and their use as kinase inhibitors” (Incyte Corporation, priority 2008, dated 2014)
pIC50: −log10 of the molar value. Where two headings read alike, the source gives them in different places.

How the values were obtained:
Assay type in all cases: biochemical
[1] = biological target: T1, human JAK1 (a.a. 837-1142) (Homo sapiens, UniProt P23458); experiment: In vitro JAK kinase assay (HTRF, phosphorylation of a biotinylated peptide), JAK1; settings: read-out: JAK1 IC50
T1 construct: human JAK1 (a.a. 837-1142); His tag (N); made in house; host or cells: insect cells (baculovirus)
T1 sequence (P23458 849-1154): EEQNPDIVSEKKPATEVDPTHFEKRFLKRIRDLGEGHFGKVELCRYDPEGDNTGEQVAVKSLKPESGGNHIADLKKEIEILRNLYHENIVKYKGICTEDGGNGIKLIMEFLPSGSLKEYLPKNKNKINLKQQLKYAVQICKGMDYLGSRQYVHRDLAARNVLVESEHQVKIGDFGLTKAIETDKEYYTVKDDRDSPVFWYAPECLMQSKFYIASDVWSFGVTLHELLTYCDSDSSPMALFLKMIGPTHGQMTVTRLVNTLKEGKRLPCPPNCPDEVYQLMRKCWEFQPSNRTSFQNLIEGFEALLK
Summary of the method: (§1)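 Kinase reactions ran at room temperature for 1 h with ATP matched per isoform (JAK1 90 μM, JAK2 30 μM, JAK3 3 μM). After an EDTA stop, the phosphorylated biotin-peptide was read by HTRF using Eu-Py20 and SA-APC after 40 min binding.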

[2] = biological target: T2, Recombinant Human Anaplastic Lymphoma Kinase (Homo sapiens, UniProt Q9UM73); experiment: ALK HTRF kinase assay; settings: compound at 500 nM or 1 mM; 90 μM ATP
T2 construct: purchased Invitrogen, Carlsbad, Calif
T2 sequence (Q9UM73 19-1620): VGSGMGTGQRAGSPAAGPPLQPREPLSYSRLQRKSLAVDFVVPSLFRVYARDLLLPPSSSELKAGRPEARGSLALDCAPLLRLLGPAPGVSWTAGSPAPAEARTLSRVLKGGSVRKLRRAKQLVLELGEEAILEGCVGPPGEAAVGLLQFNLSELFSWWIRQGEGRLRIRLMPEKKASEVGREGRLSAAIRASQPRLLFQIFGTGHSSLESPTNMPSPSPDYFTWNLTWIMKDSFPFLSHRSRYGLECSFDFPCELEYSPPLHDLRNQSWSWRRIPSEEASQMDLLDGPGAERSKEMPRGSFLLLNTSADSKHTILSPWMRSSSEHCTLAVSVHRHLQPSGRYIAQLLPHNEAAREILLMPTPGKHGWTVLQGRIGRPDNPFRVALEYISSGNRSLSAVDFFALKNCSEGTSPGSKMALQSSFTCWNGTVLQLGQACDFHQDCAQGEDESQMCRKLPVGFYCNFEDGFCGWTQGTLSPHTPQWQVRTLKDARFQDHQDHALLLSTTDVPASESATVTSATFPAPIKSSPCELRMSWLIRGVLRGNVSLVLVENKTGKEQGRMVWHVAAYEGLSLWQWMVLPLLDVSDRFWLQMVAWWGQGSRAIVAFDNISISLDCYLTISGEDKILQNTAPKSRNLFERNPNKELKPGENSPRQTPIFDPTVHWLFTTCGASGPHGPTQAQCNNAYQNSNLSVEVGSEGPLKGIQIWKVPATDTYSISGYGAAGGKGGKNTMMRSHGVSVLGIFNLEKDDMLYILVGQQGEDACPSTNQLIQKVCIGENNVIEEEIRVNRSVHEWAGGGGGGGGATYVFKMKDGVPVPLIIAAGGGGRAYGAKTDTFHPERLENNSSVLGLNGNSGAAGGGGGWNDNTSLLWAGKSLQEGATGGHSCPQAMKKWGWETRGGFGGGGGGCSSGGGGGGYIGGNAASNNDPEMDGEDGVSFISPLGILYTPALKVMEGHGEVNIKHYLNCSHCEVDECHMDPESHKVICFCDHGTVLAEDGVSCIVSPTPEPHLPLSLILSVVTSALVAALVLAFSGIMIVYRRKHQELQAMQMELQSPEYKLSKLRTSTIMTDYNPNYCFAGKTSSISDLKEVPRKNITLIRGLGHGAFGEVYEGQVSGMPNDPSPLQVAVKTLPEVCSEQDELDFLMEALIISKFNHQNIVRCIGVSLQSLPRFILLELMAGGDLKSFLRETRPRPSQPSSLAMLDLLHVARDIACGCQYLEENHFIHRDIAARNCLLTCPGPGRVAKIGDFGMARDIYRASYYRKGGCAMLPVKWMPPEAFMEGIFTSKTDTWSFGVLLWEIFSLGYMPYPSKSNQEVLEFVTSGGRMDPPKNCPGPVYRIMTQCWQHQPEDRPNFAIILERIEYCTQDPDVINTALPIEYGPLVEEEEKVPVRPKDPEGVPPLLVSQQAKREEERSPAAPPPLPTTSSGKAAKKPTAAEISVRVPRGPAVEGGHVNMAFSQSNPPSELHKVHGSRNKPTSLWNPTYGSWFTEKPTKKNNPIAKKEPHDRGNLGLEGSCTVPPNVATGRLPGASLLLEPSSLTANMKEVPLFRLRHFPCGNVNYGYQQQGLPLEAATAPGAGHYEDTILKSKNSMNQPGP
From the text: Materials: Recombinant Human Anaplastic Lymphoma Kinase was purchased from Invitrogen, Carlsbad, Calif. Peptide substrate (Biotin-[…]-amide) was custom synthesized at EZBiolab, Westfield, Ind. Streptavidin conjugated SureLight-Allophycocyania and LANCE Eu-W1024 labeled anti-phosphotyrosine antibody were from Perkin-Elmer, Boston, Mass. Microplates were from Corning Inc., Acton, Mass. All other reagents were from Sigma, St. Louis, Mo.
Plates were read in Fusion α-FP instrument (Perkin-Elmer). […] Signal=Bottom+(Top−Bottom)/(1+10^((Log(IC50)−Log [I])*Hill Slope) Bottom and Top refer to the post and pre-transition baselines, respectively.

[3] = biological target: T3, human JAK2 (a.a. 828-1132) (Homo sapiens, UniProt O60674); experiment: In vitro JAK kinase assay (HTRF, phosphorylation of a biotinylated peptide), JAK2
T3 construct: JAK2 (a.a. 828-1132); His tag (N); made in house; host or cells: insect cells (baculovirus)
T3 sequence (O60674 828-1132): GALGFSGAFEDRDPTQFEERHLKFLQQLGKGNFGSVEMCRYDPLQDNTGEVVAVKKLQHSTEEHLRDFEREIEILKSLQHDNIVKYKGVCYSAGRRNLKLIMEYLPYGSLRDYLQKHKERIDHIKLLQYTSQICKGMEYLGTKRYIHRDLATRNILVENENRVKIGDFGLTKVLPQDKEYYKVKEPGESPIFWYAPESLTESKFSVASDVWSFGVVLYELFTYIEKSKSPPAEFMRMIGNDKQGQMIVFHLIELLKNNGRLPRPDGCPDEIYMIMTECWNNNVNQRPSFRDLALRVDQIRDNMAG
Summary of the method: as §1

[4] = biological target: T4, human JAK3 (a.a. 781-1124) (Homo sapiens, UniProt P52333); experiment: In vitro JAK kinase assay (HTRF, phosphorylation of a biotinylated peptide), JAK3; settings: Table D1
T4 construct: JAK3 (a.a. 781-1124); His tag (N); made in house; host or cells: insect cells (baculovirus)
T4 sequence (P52333 781-1124): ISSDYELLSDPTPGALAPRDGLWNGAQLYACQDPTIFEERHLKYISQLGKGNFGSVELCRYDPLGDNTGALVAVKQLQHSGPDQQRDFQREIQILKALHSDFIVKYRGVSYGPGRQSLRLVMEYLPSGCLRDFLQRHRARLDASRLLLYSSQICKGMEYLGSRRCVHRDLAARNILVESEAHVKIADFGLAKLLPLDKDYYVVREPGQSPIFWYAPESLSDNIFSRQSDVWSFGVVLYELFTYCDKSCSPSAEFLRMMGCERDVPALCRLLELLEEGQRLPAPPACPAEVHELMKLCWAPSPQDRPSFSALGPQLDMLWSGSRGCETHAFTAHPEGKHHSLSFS
Summary of the method: as §1

TYK2 = TYK2 (Homo sapiens, UniProt P29597); experiment: TYK2 kinase inhibition (Table A1); settings: Table D1
Sequence of TYK2 (P29597 whole entry): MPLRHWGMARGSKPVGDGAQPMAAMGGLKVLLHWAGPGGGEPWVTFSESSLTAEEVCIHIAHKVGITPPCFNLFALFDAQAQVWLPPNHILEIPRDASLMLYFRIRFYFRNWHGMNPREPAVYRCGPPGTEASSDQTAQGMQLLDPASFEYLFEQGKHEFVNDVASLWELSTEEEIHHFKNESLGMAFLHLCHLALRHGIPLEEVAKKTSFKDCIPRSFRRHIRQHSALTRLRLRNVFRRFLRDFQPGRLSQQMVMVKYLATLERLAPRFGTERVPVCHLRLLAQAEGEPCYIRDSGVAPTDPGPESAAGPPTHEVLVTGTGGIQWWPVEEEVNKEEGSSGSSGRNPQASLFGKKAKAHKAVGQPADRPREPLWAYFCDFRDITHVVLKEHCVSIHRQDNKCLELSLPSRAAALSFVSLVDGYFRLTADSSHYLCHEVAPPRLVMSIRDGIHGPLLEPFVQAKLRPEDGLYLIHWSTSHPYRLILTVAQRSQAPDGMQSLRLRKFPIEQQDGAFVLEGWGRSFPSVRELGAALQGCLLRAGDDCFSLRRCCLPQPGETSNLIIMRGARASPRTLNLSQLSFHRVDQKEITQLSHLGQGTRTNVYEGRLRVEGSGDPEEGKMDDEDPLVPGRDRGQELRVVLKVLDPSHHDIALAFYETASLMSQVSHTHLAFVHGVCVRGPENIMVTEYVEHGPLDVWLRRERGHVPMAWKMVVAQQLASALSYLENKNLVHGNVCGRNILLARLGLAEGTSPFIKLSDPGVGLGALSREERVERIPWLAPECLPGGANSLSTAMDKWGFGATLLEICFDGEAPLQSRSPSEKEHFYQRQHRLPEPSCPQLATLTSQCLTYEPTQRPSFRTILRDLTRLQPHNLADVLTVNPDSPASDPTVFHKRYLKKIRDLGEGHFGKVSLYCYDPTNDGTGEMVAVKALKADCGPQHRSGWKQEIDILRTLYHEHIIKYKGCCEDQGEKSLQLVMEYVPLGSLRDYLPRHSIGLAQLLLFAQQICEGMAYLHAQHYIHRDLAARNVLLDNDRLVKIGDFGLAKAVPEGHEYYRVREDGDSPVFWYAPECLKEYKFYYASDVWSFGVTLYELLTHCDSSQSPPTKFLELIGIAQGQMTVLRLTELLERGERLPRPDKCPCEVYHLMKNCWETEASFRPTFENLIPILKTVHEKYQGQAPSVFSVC

[5] = method AA1 (90 μM ATP) or AA2 (1000 μM ATP), not stated per value

Structure (SMILES)	pIC50 [1, 5]	ALK % of inhibition at a concentration of 500 nM or 1 mM [2]	pIC50 ([3]; method AA1 (30 μM ATP) or AA2 (1000 μM ATP), not stated per value)	pIC50 [4]	pIC50 (TYK2)	pIC50 ([1]; Table D1)	pIC50 ([3]; Table D1)
Cc1ccoc1C(=O)N1CCC(CC(=O)Nc2ccc3cc2CCc2cncc(c2)Nc2ncc(Cl)c(n2)N3)CC1 [Example A161, N-[6-Chloro-2,4,8,18,22-pentaazatetracyclo[14.3.1.1(3,7).1(9,13)]docosa-1(20),3(22),4,6,9(21),10,12,16,18-nonaen-12-yl]-2-[1-(3-methyl-2-furoyl)piperidin-4-yl]acetamide bis(trifluoroacetate)]	7.82	27%	6.52	–	–	–	–
O=C(CC1CCN(C(=O)c2ccns2)CC1)Nc1ccc2cc1CCc1cncc(c1)Nc1ncc(Cl)c(n1)N2 [Example A168, N-[6-Chloro-2,4,8,18,22-pentaazatetracyclo[14.3.1.1(3,7).1(9,13)]docosa-1(20),3(22),4,6,9(21),10,12,16,18-nonaen-12-yl]-2-[1-(isothiazol-5-ylcarbonyl)piperidin-4-yl]acetamide bis(trifluoroacetate)]	7.66	27%	–	–	–	–	–
Cc1cc(C(=O)N2CC(CC(=O)Nc3ccc4cc3CCc3cncc(c3)Nc3ncc(Cl)c(n3)N4)C2)no1 [Example D143, N-[6-Chloro-2,4,8,18,22-pentaazatetracyclo[14.3.1.1(3,7).1(9,13)]docosa-1(20),3(22),4,6,9(21),10,12,16,18-nonaen-12-yl]-2-{1-[(5-methylisoxazol-3-yl)carbonyl]azetidin-3-yl}acetamide bis(trifluoroacetate)]	–	–	–	< 6.00	6.52	7.59	6.88
O=C(CC1CCN(c2nccs2)C1)Nc1ccc2cc1CCc1cncc(c1)Nc1ncc(Cl)c(n1)N2 (centres unmarked) [Example D154, N-[6-Chloro-2,4,8,18,22-pentaazatetracyclo[14.3.1.1(3,7).1(9,13)]docosa-1(20),3(22),4,6,9(21),10,12,16,18-nonaen-12-yl]-2-[1-(1,3-thiazol-2-yl)pyrrolidin-3-yl]acetamide tris(trifluoroacetate)]	–	–	–	< 6.40	6.65	8.11	7.23
N#Cc1cccc(NC(=O)N2CCN(c3ccc4cc3CCc3cccc(c3)Nc3ncc(Cl)c(n3)N4)CC2)c1 [Example D89, 4-[6-Chloro-2,4,8,22-tetraazatetracyclo[14.3.1.1(3,7).1(9,13)]docosa-1(20),3(22),4,6,9(21),10,12,16,18-nonaen-12-yl]-N-(3-cyanophenyl)piperazine-1-carboxamide bis(trifluoroacetate)]	–	–	–	7.11	7.28	7.18	8.17
O=C(CC1CN(c2nncs2)C1)Nc1ccc2cc1CCc1cncc(c1)Nc1ncc(Cl)c(n1)N2 [Example D151, N-[6-Chloro-2,4,8,18,22-pentaazatetracyclo[14.3.1.1(3,7).1(9,13)]docosa-1(20),3(22),4,6,9(21),10,12,16,18-nonaen-12-yl]-2-[1-(1,3,4-thiadiazol-2-yl)azetidin-3-yl]acetamide tris(trifluoroacetate)]	–	–	–	< 6.70	< 6.70	7.12	< 6.70
O=C(C[C@@H]1CCN(C(=O)Nc2ccccc2F)C1)Nc1ccc2cc1CCc1cncc(c1)Nc1ncc(Cl)c(n1)N2 [Example D135, (3S)-3-(2-{[6-Chloro-2,4,8,18,22-pentaazatetracyclo[14.3.1.1(3,7).1(9,13)]docosa-1(20),3(22),4,6,9(21),10,12,16,18-nonaen-12-yl]amino}-2-oxoethyl)-N-(2-fluorophenyl)pyrrolidine-1-carboxamide bis(trifluoroacetate)]	–	–	–	< 6.00	< 6.00	7.22	6.50

Now from value to compound:

pIC50 [1, 5]	ALK % of inhibition at a concentration of 500 nM or 1 mM [2]	pIC50 ([3]; method AA1 (30 μM ATP) or AA2 (1000 μM ATP), not stated per value)	pIC50 [4]	pIC50 (TYK2)	pIC50 ([1]; Table D1)	pIC50 ([3]; Table D1)	Structure (SMILES)
–	–	–	< 6.40	< 6.40	7.46	7.17	O=C(COc1ccc2cc1CCc1cncc(c1)Nc1ncc(Cl)c(n1)N2)N1CCN(S(=O)(=O)c2ccccc2F)CC1 [Example D253, 6-Chloro-12-(2-{4-[(2-fluorophenyl)sulfonyl]piperazin-1-yl}-2-oxoethoxy)-2,4,8,18,22-pentaazatetracyclo[14.3.1.1(3,7).1(9,13)]docosa-1(20),3(22),4,6,9(21),10,12,16,18-nonaene bis(trifluoroacetate)]
–	–	–	6.45	7.51	7.74	7.27	O=C(C[C@H]1CCCNC1)Nc1ccc2cc1CCc1cncc(c1)Nc1ncc(Cl)c(n1)N2 [Example D195, N-[6-Chloro-2,4,8,18,22-pentaazatetracyclo[14.3.1.1(3,7).1(9,13)]docosa-1(20),3(22),4,6,9(21),10,12,16,18-nonaen-12-yl]-2-[(3R)-piperidin-3-yl]acetamidetris(trifluoroacetate)]
–	–	–	< 6.40	< 6.40	7.19	6.61	CC(=O)N1CCN(C(=O)COc2ccc3cc2CCc2cncc(c2)Nc2ncc(Cl)c(n2)N3)CC1 [Example D252, 12-[2-(4-Acetylpiperazin-1-yl)-2-oxoethoxy]-6-chloro-2,4,8,18,22-pentaazatetracyclo[14.3.1.1(3,7).1(9,13)]docosa-1(20),3(22),4,6,9(21),10,12,16,18-nonaene bis(trifluoroacetate)]
–	–	–	7.10	< 6.00	7.49	7.49	O=C(Cn1c(=O)oc2c3cc(cc21)Nc1nc(ncc1Cl)Nc1cccc(c1)CC3)N1CCN(c2ccccc2)CC1 [Example D188, 4-Chloro-20-[2-oxo-2-(4-phenylpiperazin-1-yl)ethyl]-18-oxa-2,6,8,20,25-pentaazapentacyclo[14.6.1.1(3,7).1(9,13).0(17,21)]pentacosa-1(23),3(25),4,6,9(24),10,12,16,21-nonaen-19-one bis(trifluoroacetate)]
–	–	–	< 6.40	7.31	7.82	7.44	NS(=O)(=O)N1CCN(C(=O)COc2ccc3cc2CCc2cncc(c2)Nc2ncc(Cl)c(n2)N3)CC1 [Example D268, 4-({[6-Chloro-2,4,8,18,22-pentaazatetracyclo[14.3.1.1(3,7).1(9,13)]docosa-1(20),3(22),4,6,9(21),10,12,16,18-nonaen-12-yl]oxy}acetyl)piperazine-1-sulfonamide bis(trifluoroacetate)]
–	–	–	< 6.40	< 6.40	7.42	6.54	O=C(COc1ccc2cc1CCc1cncc(c1)Nc1ncc(Cl)c(n1)N2)N1CCN(C(=O)C2CCCO2)CC1 (centres unmarked) [Example D272, 6-Chloro-12-{2-oxo-2-[4-(tetrahydrofuran-2-ylcarbonyl)piperazin-1-yl]ethoxy}-2,4,8,18,22-pentaazatetracyclo[14.3.1.1(3,7).1(9,13)]docosa-1(20),3(22),4,6,9(21),10,12,16,18-nonaene bis(trifluoroacetate)]
–	–	–	< 6.40	< 6.40	7.28	6.66	O=C(COc1ccc2cc1CCc1cncc(c1)Nc1ncc(Cl)c(n1)N2)N1CCN(c2ccccn2)CC1 [Example D231, 6-Chloro-12-[2-oxo-2-(4-pyridin-2-ylpiperazin-1-yl)ethoxy]-2,4,8,18,22-pentaazatetracyclo[14.3.1.1(3,7).1(9,13)]docosa-1(20),3(22),4,6,9(21),10,12,16,18-nonaene tris(trifluoroacetate)]
